Reference: patent publication US4163839A, “Isocoformycin and a process for the production thereof” (priority 1977, dated 1979)
Where two headings read alike, the source gives them in different places.

Key:
Takadiastase-Y = experiment: Inhibition of Takadiastase-Y deamination (decrease in optical density); type: biochemical; details: at 45° C., 2 min, read-out: ID50 (the source's name)
Method: (§1) The novel compound of the present invention, isocoformycin (III), is useful because of its ability to inhibit strongly the deamination of formycin, adenine arabinoside and cordycepin by the adenosine deaminase present in mammals and birds. The inhibitory activities of isocoformycin on adenosine deaminase were measured using formycin and adenosine as the substrate. Three ml of a solution of adenosine or formycin in 0.05 M phosphate buffer (12 mg/ml, pH 7.5 and 6.5, respectively) was put in a quartz cell of 1 cm in length and 0.1 ml of a solution containing a known amount of isocoformycin in distilled water was added. The reaction was started by addition of 0.1 ml of enzyme solution (adenosine deaminase from calf intestine: 1 mg/ml of 0.025 M ammonium acetate or Takadiastase-Y: 4 mg/ml of distilled water) and the decreases for 2 minutes in optical densities at 265 nm in the case of adenosine or 295 nm in the case of formycin were recorded on Beckmann spectrophotometer equipped with the Gilford recorder. The concentration of the inhibitor for 50% inhibition (ID50) was calculated from the difference of the optical densities as shown in Table 1.

[1] = molecular target: T1, adenosine deaminase from calf intestine (Bos taurus, UniProt P56658); experiment: Inhibition of adenosine deaminase from calf intestine (decrease in optical density); type: biochemical; details: at 25° C., read-out: ID50 (the source's name)
T1 construct: from tissue; host or cells: calf intestine
T1 sequence (P56658 1-363): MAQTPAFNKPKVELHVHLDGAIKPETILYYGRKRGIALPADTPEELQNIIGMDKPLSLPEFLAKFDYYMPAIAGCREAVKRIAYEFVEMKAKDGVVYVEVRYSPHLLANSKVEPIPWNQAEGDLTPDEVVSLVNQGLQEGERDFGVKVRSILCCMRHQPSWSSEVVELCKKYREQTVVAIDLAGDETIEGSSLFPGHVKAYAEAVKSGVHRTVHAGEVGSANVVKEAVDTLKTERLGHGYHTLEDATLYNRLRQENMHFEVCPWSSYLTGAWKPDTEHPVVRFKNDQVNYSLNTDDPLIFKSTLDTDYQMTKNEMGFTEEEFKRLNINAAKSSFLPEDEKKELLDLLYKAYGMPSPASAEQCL
Method: as §1

[2] = system: mouse leukemia L-1210 cells; experiment: Survival period of mice implanted with L-1210 cells; type: in vivo
Method: Each dose was injected i.p. 2 hrs. after implantation of 10^5 L-1210 cells once a day for 10 days.
"S. period" is the mean survival time in days.
"T/C" is the ratio of the mean survival time of the treated (with drug) animals versus the control's (no drug) and is expressed as a percentage.

[3] = system: mouse leukemia L-1210 cells; experiment: Inhibition of multiplication of L-1210 cells in tissue culture (Lowry method); type: cell-based
From the text: The isocoformycin is also useful as a strong synergist of formcyin and adenine arabinoside for their antitumor activities. […] The inhibitory effect of formycin with or without isocoformycin on multiplication of the mouse leukemia L-1210 cells measured by the Lowry method [O. H. Lowry, N. J. Rosenbrough, A. L. Farr and R. J. Randall, J. Biol. Chem., 193, 265 (1951)] is directed in Table 2.

Escherichia coli NIHJ = experiment: Disc method on nutrient agar against Escherichia coli NIHJ; type: cell-based; details: for Diameter (inhibition diameter): disc 8 mm, medium containing formycin 50 μg/ml
[4] = formycin 50 μg/m i.p. once a day for 10 days, isocoformycin 0
[5] = isocoformycin 1.5 μg/m i.p. once a day for 10 days, without formycin
[6] = isocoformycin 1.5 μg/m with formycin 50 μg/m, i.p. once a day for 10 days
[7] = isocoformycin 3.1 μg/m i.p. once a day for 10 days, without formycin
[8] = isocoformycin 3.1 μg/m with formycin 50 μg/m, i.p. once a day for 10 days
[9] = isocoformycin 6.2 μg/m i.p. once a day for 10 days, without formycin
[10] = isocoformycin 6.2 μg/m with formycin 50 μg/m, i.p. once a day for 10 days
[11] = isocoformycin 12.5 μg/m i.p. once a day for 10 days, without formycin
[12] = isocoformycin 12.5 μg/m with formycin 50 μg/m, i.p. once a day for 10 days
[13] = isocoformycin 25 μg/m i.p. once a day for 10 days, without formycin
[14] = isocoformycin 25 μg/m with formycin 50 μg/m, i.p. once a day for 10 days
[15] = isocoformycin 50 μg/m i.p. once a day for 10 days, without formycin
[16] = isocoformycin 50 μg/m with formycin 50 μg/m, i.p. once a day for 10 days

OCC1NC=Nc2c1ncn2[C@@H]1O[C@H](CO)[C@@H](O)[C@H]1O (stereo partly drawn) [9-β-D-ribofuranosyl-6-hydroxymethyl-1,6-dihydropurine, reference compound]
IC50 (Takadiastase-Y; substrate adenosine, pH 7.5): 280000 nM
IC50 (Takadiastase-Y; substrate formycin, pH 6.5): 200000 nM
IC50 ([1]; substrate adenosine, pH 7.5): 5800 nM
IC50 ([1]; substrate formycin, pH 6.5): 2600 nM

Nc1ncnc2c([C@@H]3O[C@H](CO)[C@@H](O)[C@H]3O)[nH]nc12 [Formycin, formycin]
T/C % [2, 4]: 122%
s.period (mean survival time) [2, 4]: 10.5 days
inhibition at 0.2 µg/mL ([3]; Mus musculus, L1210): 8%

OC[C@H]1O[C@@H](n2cnc3c2N=CNC(O)C3)[C@H](O)[C@@H]1O (stereo partly drawn) [Isocoformycin, 3-β-D-ribofuranosyl-3,6,7,8-tetrahydroimidazo[4,5-d][1,3]-diazepin-7-ol]
IC50 (Takadiastase-Y; substrate adenosine, pH 7.5): 1100 nM
IC50 (Takadiastase-Y; substrate formycin, pH 6.5): 2000 nM
prolongation in the survival period ([2]; formycin combined with isocoformycin intraperitoneally): marked prolongation
T/C % [2, 5]: 93%
s.period (mean survival time) [2, 5]: 8.0 days
T/C % [2, 6]: 145%
s.period (mean survival time) [2, 6]: 12.5 days
T/C % [2, 7]: 105%
s.period (mean survival time) [2, 7]: 9.0 days
T/C % [2, 8]: 163%
s.period (mean survival time) [2, 8]: 14.0 days
T/C % [2, 9]: 99%
s.period (mean survival time) [2, 9]: 9.0 days
T/C % [2, 10]: 140%
s.period (mean survival time) [2, 10]: 12.0 days
T/C % [2, 11]: 116%
s.period (mean survival time) [2, 11]: 8.5 days
T/C % [2, 12]: 163%
s.period (mean survival time) [2, 12]: 14.0 days
T/C % [2, 13]: 93%
s.period (mean survival time) [2, 13]: 10.0 days
T/C % [2, 14]: 174%
s.period (mean survival time) [2, 14]: 15.0 days
T/C % [2, 15]: 93%
s.period (mean survival time) [2, 15]: 8.0 days
T/C % [2, 16]: 174%
s.period (mean survival time) [2, 16]: 15.0 days
IC50 ([1]; substrate adenosine, pH 7.5): 86 nM
IC50 ([1]; substrate formycin, pH 6.5): 35 nM
inhibition at 0.2 µg/mL ([3]; Mus musculus, L1210, isocoformycin 0.20 μg/ml, formycin 0.0, read-out: Inhibition (%)): 0%
inhibition at 0.5 µg/mL ([3]; Mus musculus, L1210, isocoformycin 0.50 μg/ml, formycin 0.0): -4%
Inhibition (%) ([3]; isocoformycin 0.20 μg/ml with formycin 0.20 μg/ml): 42%
Inhibition (%) ([3]; isocoformycin 0.50 μg/ml with formycin 0.20 μg/ml): 55%
synergistic effect with formycin in the inhibition of cell multiplication ([3]; tissue cultures, with formycin): strong synergistic effect
Diameter (inhibition diameter) (Escherichia coli NIHJ; isocoformycin 2.5 μg/ml): 22.0 mm
Diameter (inhibition diameter) (Escherichia coli NIHJ; isocoformycin 10 μg/ml): 25.0 mm
Diameter (inhibition diameter) (Escherichia coli NIHJ; isocoformycin 40 μg/ml): 32.0 mm
Diameter (inhibition diameter) (Escherichia coli NIHJ; isocoformycin 200 μg/ml): 36.0 mm
inhibitory activity against Escherichia coli NIHJ (Escherichia coli NIHJ; without formycin, isocoformycin 2 mg/ml): no inhibitory activity
